Assay results from patent US9585962B1, “Treatment for actinic keratoses” (priority 2013, dated 2017).

Tested on: actinic keratoses
Settings: 0.1% in a dermatologically acceptable cream base

COc1cc2c(c(OC)c1OC)-c1ccc(OC)c(=O)cc1[C@@H](NC(C)=O)CC2 [colchicine]
actinic keratoses cleared: 35-40% | skin irritation: significant level of skin irritation
